Legend:
Brazilian crabgrass = experiment: Test E postemergence; type: in vivo, Digitaria horizontalis; settings: Digitaria horizontalis, post-emergence, read-out: Plant response rating, Crabgrass, Brazil
Summary of the method: (§1)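 Compound in a non-phytotoxic solvent mixture with surfactant was applied preemergence to seeds in silt loam soil, or postemergence to plants 2 to 18 cm tall grown in peat-based potting medium. Plants were kept in a greenhouse for 14 to 21 days, then rated visually against untreated controls on a 0 (no effect) to 100 (complete control) scale.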

goosegrass = experiment: Test E preemergence; type: in vivo, Eleusine indica; settings: for Goosegrass plant response rating: scale 0 to 100 (0 no effect, 100 complete control); for Plant response rating, Goosegrass: scale 0 to 100, 0 no effect, 100 complete control
Summary of the method: as §1

corn = experiment: Test E postemergence; type: in vivo, Zea mays; settings: Zea mays, post-emergence
Summary of the method: as §1

yellow nutsedge = experiment: Test E preemergence; type: in vivo, Cyperus esculentus; settings: for Nutsedge, Yellow plant response rating: scale 0 to 100 (0 no effect, 100 complete control); for Plant response rating, Nutsedge, Yellow: scale 0 to 100, 0 no effect, 100 complete control
Summary of the method: as §1

ragweed = experiment: Test E preemergence; type: in vivo, Ambrosia elatior; settings: for Ragweed plant response rating: scale 0 to 100 (0 no effect, 100 complete control); for Plant response rating, Ragweed: scale 0 to 100, 0 no effect, 100 complete control
Summary of the method: as §1

soybean = experiment: Test E preemergence; type: in vivo, Glycine max; settings: for Soybean plant response rating: scale 0 to 100 (0 no effect, 100 complete control); for Plant response rating, Soybean: scale 0 to 100, 0 no effect, 100 complete control
Summary of the method: as §1

barnyardgrass = experiment: Test E postemergence; type: in vivo, Echinochloa crus-galli; settings: Echinochloa crus-galli, post-emergence, read-out: Plant response rating, Barnyardgrass
Summary of the method: as §1

dayflower [1] = experiment: Test E preemergence; type: in vivo, Commelina virginica; settings: for Dayflower, VA plant response rating: scale 0 to 100 (0 no effect, 100 complete control); for Plant response rating, Dayflower, VA: scale 0 to 100, 0 no effect, 100 complete control
Summary of the method: as §1

hairy beggarticks [2] = experiment: Test E preemergence; type: in vivo, Bidens pilosa; settings: for Beggarticks plant response rating: scale 0 to 100 (0 no effect, 100 complete control); for Plant response rating, Beggarticks: scale 0 to 100, 0 no effect, 100 complete control
Summary of the method: as §1

lambsquarters = experiment: Test E preemergence; type: in vivo, Chenopodium album; settings: for Lambsquarters plant response rating: scale 0 to 100 (0 no effect, 100 complete control); for Plant response rating, Lambsquarters: scale 0 to 100, 0 no effect, 100 complete control
Summary of the method: as §1

Italian ryegrass = experiment: Test E preemergence; type: in vivo, Lolium multiflorum; settings: for Ryegrass, Italian plant response rating: scale 0 to 100 (0 no effect, 100 complete control); for Plant response rating, Ryegrass, Italian: scale 0 to 100, 0 no effect, 100 complete control
Summary of the method: as §1

waterhemp = experiment: Test E preemergence; type: in vivo, Amaranthus rudis; settings: for Waterhemp plant response rating: scale 0 to 100 (0 no effect, 100 complete control); for Plant response rating, Waterhemp: scale 0 to 100, 0 no effect, 100 complete control
Summary of the method: as §1

hairy beggarticks [3] = experiment: Test E postemergence; type: in vivo, Bidens pilosa; settings: Bidens pilosa, post-emergence, read-out: Plant response rating, Beggarticks
Summary of the method: as §1

sandbur = experiment: Test E preemergence; type: in vivo, Cenchrus echinatus; settings: for Sandbur plant response rating: scale 0 to 100 (0 no effect, 100 complete control); for Plant response rating, Sandbur: scale 0 to 100, 0 no effect, 100 complete control
Summary of the method: as §1

dayflower [4] = experiment: Test E postemergence; type: in vivo, Commelina virginica; settings: Commelina virginica, post-emergence, read-out: Plant response rating, Dayflower, VA
Summary of the method: as §1

field bindweed = experiment: Test E preemergence; type: in vivo, Convolvulus arvensis; settings: for Field Bindweed plant response rating: scale 0 to 100 (0 no effect, 100 complete control); for Plant response rating, Field Bindweed: scale 0 to 100, 0 no effect, 100 complete control
Summary of the method: as §1

[5] = Postemergence, 31 g ai/ha, scale 0 to 100
[6] = Postemergence, 62 g ai/ha, scale 0 to 100
[7] = Postemergence, 125 g ai/ha, scale 0 to 100
[8] = postemergence, 16 g ai/ha, scale 0 to 100, 0 no effect, 100 complete control

N#Cc1cccc(Oc2ncc(Cl)cn2)c1-n1cc(Br)cn1 [Compound 52, 2-(4-bromo-1H-pyrazol-1-yl)-3-[(5-chloro-2-pyrimidinyl)oxy]benzonitrile]
pest or weed control at 31 g/ha (Brazilian crabgrass; [5]): 30%
pest or weed control at 62 g/ha (Brazilian crabgrass; [6]): 30%
pest or weed control at 125 g/ha (Brazilian crabgrass; [7]): 40%
pest or weed control at 16 g/ha (Brazilian crabgrass; [8]): 15%
Goosegrass plant response rating (goosegrass; 16 g ai/ha): 5
Goosegrass plant response rating (goosegrass; 31 g ai/ha): 50
Goosegrass plant response rating (goosegrass; 62 g ai/ha): 65
Plant response rating, Goosegrass (goosegrass; 125 g ai/ha): 98
Plant response rating, Goosegrass (goosegrass; 250 g ai/ha): 100
corn plant response (injury) rating, 0-100 at 31 g/ha (corn; [5]): 10%
corn plant response (injury) rating, 0-100 at 62 g/ha (corn; [6]): 20%
corn plant response (injury) rating, 0-100 at 125 g/ha (corn; [7]): 25%
corn plant response (injury) rating, 0-100 at 16 g/ha (corn; [8]): 10%
Nutsedge, Yellow plant response rating (yellow nutsedge; 16 g ai/ha): 0
Nutsedge, Yellow plant response rating (yellow nutsedge; 31 g ai/ha): 0
Nutsedge, Yellow plant response rating (yellow nutsedge; 62 g ai/ha): 0
Plant response rating, Nutsedge, Yellow (yellow nutsedge; 125 g ai/ha): 25
Plant response rating, Nutsedge, Yellow (yellow nutsedge; 250 g ai/ha): 50
Ragweed plant response rating (ragweed; 16 g ai/ha): 0
Ragweed plant response rating (ragweed; 31 g ai/ha): 0
Ragweed plant response rating (ragweed; 62 g ai/ha): 0
Plant response rating, Ragweed (ragweed; 125 g ai/ha): 5
Plant response rating, Ragweed (ragweed; 250 g ai/ha): 70
Soybean plant response rating (soybean; 16 g ai/ha): 0
Soybean plant response rating (soybean; 31 g ai/ha): 0
Soybean plant response rating (soybean; 62 g ai/ha): 0
Plant response rating, Soybean (soybean; 125 g ai/ha): 60
Plant response rating, Soybean (soybean; 250 g ai/ha): 90
pest or weed control at 31 g/ha (barnyardgrass; [5]): 10%
pest or weed control at 62 g/ha (barnyardgrass; [6]): 20%
pest or weed control at 125 g/ha (barnyardgrass; [7]): 30%
pest or weed control at 16 g/ha (barnyardgrass; [8]): 5%
Dayflower, VA plant response rating (dayflower [1]; 16 g ai/ha): 0
Dayflower, VA plant response rating (dayflower [1]; 31 g ai/ha): 0
Dayflower, VA plant response rating (dayflower [1]; 62 g ai/ha): 5
Plant response rating, Dayflower, VA (dayflower [1]; 125 g ai/ha): 70
Plant response rating, Dayflower, VA (dayflower [1]; 250 g ai/ha): 98
Beggarticks plant response rating (hairy beggarticks [2]; 16 g ai/ha, preemergence): 0
Beggarticks plant response rating (hairy beggarticks [2]; 31 g ai/ha, preemergence): 0
Plant response rating, Beggarticks (hairy beggarticks [2]; Preemergence, 62 g ai/ha): 0
Plant response rating, Beggarticks (hairy beggarticks [2]; preemergence, 125 g ai/ha): 40
Plant response rating, Beggarticks (hairy beggarticks [2]; preemergence, 250 g ai/ha): 65
Lambsquarters plant response rating (lambsquarters; 16 g ai/ha): 0
Lambsquarters plant response rating (lambsquarters; 31 g ai/ha): 75
Lambsquarters plant response rating (lambsquarters; 62 g ai/ha): 98
Plant response rating, Lambsquarters (lambsquarters; 125 g ai/ha): 98
Plant response rating, Lambsquarters (lambsquarters; 250 g ai/ha): 100
Ryegrass, Italian plant response rating (Italian ryegrass; 16 g ai/ha): 0
Ryegrass, Italian plant response rating (Italian ryegrass; 31 g ai/ha): 0
Ryegrass, Italian plant response rating (Italian ryegrass; 62 g ai/ha): 0
Plant response rating, Ryegrass, Italian (Italian ryegrass; 125 g ai/ha): 60
Plant response rating, Ryegrass, Italian (Italian ryegrass; 250 g ai/ha): 90
Waterhemp plant response rating (waterhemp; 16 g ai/ha): 80
Waterhemp plant response rating (waterhemp; 31 g ai/ha): 100
Waterhemp plant response rating (waterhemp; 62 g ai/ha): 100
Plant response rating, Waterhemp (waterhemp; 125 g ai/ha): 100
Plant response rating, Waterhemp (waterhemp; 250 g ai/ha): 100
pest or weed control at 31 g/ha (hairy beggarticks [3]; [5]): 60%
pest or weed control at 62 g/ha (hairy beggarticks [3]; [6]): 70%
pest or weed control at 125 g/ha (hairy beggarticks [3]; [7]): 75%
pest or weed control at 16 g/ha (hairy beggarticks [3]; [8]): 30%
Sandbur plant response rating (sandbur; 16 g ai/ha): 0
Sandbur plant response rating (sandbur; 31 g ai/ha): 0
Sandbur plant response rating (sandbur; 62 g ai/ha): 10
Plant response rating, Sandbur (sandbur; 125 g ai/ha): 35
Plant response rating, Sandbur (sandbur; 250 g ai/ha): 80
pest or weed control at 31 g/ha (dayflower [4]; [5]): 40%
pest or weed control at 62 g/ha (dayflower [4]; [6]): 50%
pest or weed control at 125 g/ha (dayflower [4]; [7]): 60%
pest or weed control at 16 g/ha (dayflower [4]; [8]): 30%
Field Bindweed plant response rating (field bindweed; 16 g ai/ha): 0
Field Bindweed plant response rating (field bindweed; 31 g ai/ha): 0
Field Bindweed plant response rating (field bindweed; 62 g ai/ha): 25
Plant response rating, Field Bindweed (field bindweed; 125 g ai/ha): 80
Plant response rating, Field Bindweed (field bindweed; 250 g ai/ha): 95
